Test results taken from ChEMBL document CHEMBL4507274 (2021).

Columns and labels:
[1] = biological target: Receptor-type tyrosine-protein kinase FLT3 (Homo sapiens) (UniProt P36888); settings: Compound concentration 100.0 nM
[2] = biological target: Cyclin-dependent kinase-like 5 (Homo sapiens) (UniProt O76039); settings: Compound concentration 100.0 nM
[3] = biological target: Discoidin domain-containing receptor 2 (Homo sapiens) (UniProt Q16832); settings: Compound concentration 100.0 nM
[4] = biological target: Fibroblast growth factor receptor 2 (Homo sapiens) (UniProt P21802); settings: Compound concentration 100.0 nM
[5] = biological target: Bone morphogenetic protein receptor type-1B (Homo sapiens) (UniProt O00238); settings: Compound concentration 100.0 nM
[6] = biological target: T1, Dual specificity mitogen-activated protein kinase kinase 7 (Homo sapiens) (UniProt O14733); settings: Compound concentration 100.0 nM
T1 sequence (whole entry): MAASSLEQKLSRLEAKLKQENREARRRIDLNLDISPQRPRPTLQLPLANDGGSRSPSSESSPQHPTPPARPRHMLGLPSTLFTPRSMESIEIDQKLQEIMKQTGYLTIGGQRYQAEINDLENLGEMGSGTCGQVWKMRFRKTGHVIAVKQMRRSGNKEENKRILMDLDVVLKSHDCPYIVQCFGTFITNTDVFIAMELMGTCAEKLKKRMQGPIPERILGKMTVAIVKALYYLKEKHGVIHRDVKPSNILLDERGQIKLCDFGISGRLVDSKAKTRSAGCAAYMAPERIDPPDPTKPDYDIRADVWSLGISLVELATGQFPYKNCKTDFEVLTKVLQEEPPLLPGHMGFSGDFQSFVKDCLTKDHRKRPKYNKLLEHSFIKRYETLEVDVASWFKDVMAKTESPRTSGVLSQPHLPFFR

[7] = biological target: Beta-2 adrenergic receptor (Homo sapiens) (UniProt P07550); settings: Compound concentration 10.0 uM
[8] = biological target: Fibroblast growth factor receptor 4 (Homo sapiens) (UniProt P22455); settings: Compound concentration 100.0 nM
[9] = biological target: Homeodomain-interacting protein kinase 4 (Homo sapiens) (UniProt Q8NE63); settings: Compound concentration 100.0 nM
[10] = biological target: Calcium/calmodulin-dependent protein kinase type 1 (Homo sapiens) (UniProt Q14012); settings: Compound concentration 100.0 nM
Chain of Calcium/calmodulin-dependent protein kinase type 1 (Homo sapiens) (Q14012 whole entry, looked up): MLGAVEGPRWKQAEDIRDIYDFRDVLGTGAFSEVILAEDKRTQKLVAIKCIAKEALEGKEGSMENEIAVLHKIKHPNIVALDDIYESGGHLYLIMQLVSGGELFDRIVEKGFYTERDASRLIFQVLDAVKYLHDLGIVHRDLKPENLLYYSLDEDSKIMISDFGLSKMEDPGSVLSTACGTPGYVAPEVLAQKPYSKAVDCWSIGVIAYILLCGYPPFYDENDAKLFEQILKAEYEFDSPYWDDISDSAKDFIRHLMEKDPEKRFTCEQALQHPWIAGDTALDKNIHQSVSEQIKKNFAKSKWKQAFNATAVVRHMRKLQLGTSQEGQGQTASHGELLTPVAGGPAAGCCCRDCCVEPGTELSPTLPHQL

[11] = biological target: T2, Aurora kinase A (Homo sapiens) (UniProt O14965); settings: Compound concentration 100.0 nM
T2 sequence (whole entry): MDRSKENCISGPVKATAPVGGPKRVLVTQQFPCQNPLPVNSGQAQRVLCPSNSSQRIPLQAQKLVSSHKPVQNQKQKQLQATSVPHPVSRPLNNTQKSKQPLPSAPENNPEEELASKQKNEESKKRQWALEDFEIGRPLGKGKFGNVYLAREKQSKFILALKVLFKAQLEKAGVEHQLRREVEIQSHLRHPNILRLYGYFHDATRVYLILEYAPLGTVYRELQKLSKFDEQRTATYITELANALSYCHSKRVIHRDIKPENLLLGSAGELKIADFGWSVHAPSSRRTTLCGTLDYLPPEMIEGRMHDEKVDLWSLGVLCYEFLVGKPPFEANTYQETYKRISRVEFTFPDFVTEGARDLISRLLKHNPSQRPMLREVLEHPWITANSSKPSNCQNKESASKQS

[12] = biological target: Mitogen-activated protein kinase kinase kinase 11 (Homo sapiens) (UniProt Q16584); settings: Compound concentration 100.0 nM
[13] = biological target: Peripheral plasma membrane protein CASK (Homo sapiens) (UniProt O14936); settings: Compound concentration 100.0 nM
[14] = biological target: Serine/threonine-protein kinase 38-like (Homo sapiens) (UniProt Q9Y2H1); settings: Compound concentration 100.0 nM
[15] = biological target: Calcium/calmodulin-dependent protein kinase type 1G (Homo sapiens) (UniProt Q96NX5); settings: Compound concentration 100.0 nM
Chain of Calcium/calmodulin-dependent protein kinase type 1G (Homo sapiens) (Q96NX5 whole entry): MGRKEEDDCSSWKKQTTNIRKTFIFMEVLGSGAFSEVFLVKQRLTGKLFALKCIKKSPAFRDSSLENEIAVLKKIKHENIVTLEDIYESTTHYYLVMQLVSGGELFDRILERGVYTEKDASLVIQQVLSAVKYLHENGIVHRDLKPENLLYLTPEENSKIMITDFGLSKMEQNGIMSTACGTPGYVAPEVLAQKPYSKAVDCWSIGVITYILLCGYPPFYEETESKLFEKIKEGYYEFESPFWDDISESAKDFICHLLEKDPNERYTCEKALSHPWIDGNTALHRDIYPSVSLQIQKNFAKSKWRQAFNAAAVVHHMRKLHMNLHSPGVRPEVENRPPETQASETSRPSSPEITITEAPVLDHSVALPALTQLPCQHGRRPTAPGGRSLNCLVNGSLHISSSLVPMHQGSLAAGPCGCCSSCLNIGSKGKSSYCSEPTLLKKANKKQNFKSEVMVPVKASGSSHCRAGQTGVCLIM

[16] = biological target: Tyrosine-protein kinase Fer (Homo sapiens) (UniProt P16591); settings: Compound concentration 100.0 nM
Chain of Tyrosine-protein kinase Fer (Homo sapiens) (P16591 whole entry, looked up): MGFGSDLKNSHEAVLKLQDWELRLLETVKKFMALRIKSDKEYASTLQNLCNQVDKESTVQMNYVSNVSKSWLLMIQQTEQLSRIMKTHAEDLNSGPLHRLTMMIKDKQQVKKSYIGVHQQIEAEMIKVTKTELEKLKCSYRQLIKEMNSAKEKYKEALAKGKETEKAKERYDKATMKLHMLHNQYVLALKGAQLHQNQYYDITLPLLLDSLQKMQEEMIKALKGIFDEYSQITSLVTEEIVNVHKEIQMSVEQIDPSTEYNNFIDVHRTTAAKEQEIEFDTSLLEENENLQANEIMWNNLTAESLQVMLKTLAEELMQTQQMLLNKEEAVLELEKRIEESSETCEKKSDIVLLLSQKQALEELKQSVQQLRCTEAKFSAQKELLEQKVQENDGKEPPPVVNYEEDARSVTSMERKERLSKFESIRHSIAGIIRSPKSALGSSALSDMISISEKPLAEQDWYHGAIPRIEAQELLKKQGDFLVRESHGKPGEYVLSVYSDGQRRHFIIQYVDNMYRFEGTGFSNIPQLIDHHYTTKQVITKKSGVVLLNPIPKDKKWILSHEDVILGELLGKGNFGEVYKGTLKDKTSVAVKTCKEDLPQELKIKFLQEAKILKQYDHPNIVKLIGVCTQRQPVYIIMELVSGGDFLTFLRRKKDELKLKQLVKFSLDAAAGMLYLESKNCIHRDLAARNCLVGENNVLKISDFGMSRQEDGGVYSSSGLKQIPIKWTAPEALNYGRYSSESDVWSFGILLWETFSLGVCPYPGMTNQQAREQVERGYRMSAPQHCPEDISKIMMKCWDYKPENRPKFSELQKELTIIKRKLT

[17] = biological target: SNF-related serine/threonine-protein kinase (Homo sapiens) (UniProt Q9NRH2); settings: Compound concentration 100.0 nM
Chain of SNF-related serine/threonine-protein kinase (Homo sapiens) (Q9NRH2 whole entry): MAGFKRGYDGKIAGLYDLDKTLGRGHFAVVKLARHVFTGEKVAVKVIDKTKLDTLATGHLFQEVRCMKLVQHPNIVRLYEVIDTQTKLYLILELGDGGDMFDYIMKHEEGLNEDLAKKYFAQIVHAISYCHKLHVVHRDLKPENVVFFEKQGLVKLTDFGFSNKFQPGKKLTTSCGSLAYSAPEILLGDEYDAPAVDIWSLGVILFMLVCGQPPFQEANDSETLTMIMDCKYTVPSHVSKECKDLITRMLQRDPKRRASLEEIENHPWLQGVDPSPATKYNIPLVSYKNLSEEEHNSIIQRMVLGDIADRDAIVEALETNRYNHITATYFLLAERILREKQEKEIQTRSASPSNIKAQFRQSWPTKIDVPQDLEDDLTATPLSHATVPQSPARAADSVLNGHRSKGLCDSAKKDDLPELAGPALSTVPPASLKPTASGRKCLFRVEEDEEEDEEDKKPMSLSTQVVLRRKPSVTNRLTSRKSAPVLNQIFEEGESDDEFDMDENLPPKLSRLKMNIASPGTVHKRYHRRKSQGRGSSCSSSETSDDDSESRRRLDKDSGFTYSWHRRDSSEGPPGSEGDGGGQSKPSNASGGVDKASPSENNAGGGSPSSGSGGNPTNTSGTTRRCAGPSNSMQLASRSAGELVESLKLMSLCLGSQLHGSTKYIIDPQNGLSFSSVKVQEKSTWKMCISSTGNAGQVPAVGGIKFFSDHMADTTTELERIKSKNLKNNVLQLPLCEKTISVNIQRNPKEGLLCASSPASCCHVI

[18] = biological target: Dual specificity protein kinase TTK (Homo sapiens) (UniProt P33981); settings: Compound concentration 100.0 nM
[19] = biological target: Serine/threonine-protein kinase PRP4 homolog (Homo sapiens) (UniProt Q13523); settings: Compound concentration 100.0 nM
Chain of Serine/threonine-protein kinase PRP4 homolog (Homo sapiens) (Q13523 whole entry): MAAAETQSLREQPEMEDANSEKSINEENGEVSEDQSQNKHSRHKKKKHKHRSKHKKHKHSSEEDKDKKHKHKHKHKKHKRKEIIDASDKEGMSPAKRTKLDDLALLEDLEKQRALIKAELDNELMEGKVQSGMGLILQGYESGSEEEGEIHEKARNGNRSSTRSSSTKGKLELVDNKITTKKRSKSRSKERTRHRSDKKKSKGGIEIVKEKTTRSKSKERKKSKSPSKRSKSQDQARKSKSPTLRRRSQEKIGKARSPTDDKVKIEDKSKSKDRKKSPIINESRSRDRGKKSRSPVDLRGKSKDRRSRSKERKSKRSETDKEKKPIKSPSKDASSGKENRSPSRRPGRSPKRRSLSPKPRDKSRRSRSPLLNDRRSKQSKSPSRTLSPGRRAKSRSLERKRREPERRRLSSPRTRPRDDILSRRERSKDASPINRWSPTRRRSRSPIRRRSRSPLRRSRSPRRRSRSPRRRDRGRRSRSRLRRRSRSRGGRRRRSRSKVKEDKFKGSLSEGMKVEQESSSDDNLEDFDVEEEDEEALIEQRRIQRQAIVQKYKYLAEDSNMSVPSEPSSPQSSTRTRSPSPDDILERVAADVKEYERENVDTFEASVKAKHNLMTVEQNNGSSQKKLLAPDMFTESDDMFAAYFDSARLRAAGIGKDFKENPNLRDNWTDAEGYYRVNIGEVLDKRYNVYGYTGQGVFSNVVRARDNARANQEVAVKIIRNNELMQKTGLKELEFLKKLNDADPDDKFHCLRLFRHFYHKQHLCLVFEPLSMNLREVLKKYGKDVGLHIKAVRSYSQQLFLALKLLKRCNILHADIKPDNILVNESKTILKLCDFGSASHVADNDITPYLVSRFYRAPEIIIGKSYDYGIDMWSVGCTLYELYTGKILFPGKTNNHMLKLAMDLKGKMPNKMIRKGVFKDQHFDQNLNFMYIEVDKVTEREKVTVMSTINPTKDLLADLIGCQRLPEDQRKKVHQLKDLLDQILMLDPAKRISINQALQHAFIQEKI

[20] = biological target: Uncharacterized serine/threonine-protein kinase SBK3 (Homo sapiens) (UniProt P0C264); settings: Compound concentration 100.0 nM
[21] = biological target: Serine/threonine-protein kinase 26 (Homo sapiens) (UniProt Q9P289); settings: Compound concentration 100.0 nM
[22] = test system: Receptor-type tyrosine-protein kinase FLT3 (Homo sapiens), P36888 [D835V]; settings: Compound concentration 100.0 nM
[23] = biological target: Dual specificity tyrosine-phosphorylation-regulated kinase 1A (Homo sapiens) (UniProt Q13627); settings: Compound concentration 100.0 nM
[24] = biological target: Serine/threonine-protein kinase STK11 (Homo sapiens) (UniProt Q15831); settings: Compound concentration 100.0 nM
[25] = biological target: Kappa-type opioid receptor (Homo sapiens, UniProt P41145); settings: Compound concentration 10.0 uM
[26] = biological target: Receptor-interacting serine/threonine-protein kinase 2 (Homo sapiens) (UniProt O43353); settings: Compound concentration 100.0 nM
Chain of Receptor-interacting serine/threonine-protein kinase 2 (Homo sapiens) (O43353 whole entry): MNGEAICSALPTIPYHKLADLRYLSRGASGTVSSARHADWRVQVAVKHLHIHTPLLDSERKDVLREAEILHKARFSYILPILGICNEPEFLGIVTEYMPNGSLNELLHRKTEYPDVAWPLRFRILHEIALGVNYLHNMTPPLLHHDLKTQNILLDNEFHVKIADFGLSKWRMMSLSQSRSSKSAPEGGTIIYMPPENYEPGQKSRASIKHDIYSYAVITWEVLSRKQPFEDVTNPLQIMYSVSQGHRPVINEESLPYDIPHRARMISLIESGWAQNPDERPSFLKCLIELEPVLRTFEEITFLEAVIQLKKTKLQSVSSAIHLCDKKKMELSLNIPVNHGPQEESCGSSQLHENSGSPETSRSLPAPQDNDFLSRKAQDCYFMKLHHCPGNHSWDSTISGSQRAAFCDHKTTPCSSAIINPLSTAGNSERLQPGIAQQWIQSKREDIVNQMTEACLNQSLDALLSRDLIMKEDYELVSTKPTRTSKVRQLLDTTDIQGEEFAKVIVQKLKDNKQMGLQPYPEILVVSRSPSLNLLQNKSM

[27] = biological target: Tyrosine-protein kinase receptor Tie-1 (Homo sapiens) (UniProt P35590); settings: Compound concentration 100.0 nM
[28] = biological target: Ephrin type-B receptor 6 (Homo sapiens) (UniProt O15197); settings: Compound concentration 100.0 nM
[29] = biological target: Phosphatidylinositol 4,5-bisphosphate 3-kinase catalytic subunit gamma isoform (Homo sapiens) (UniProt P48736); settings: Compound concentration 100.0 nM
[30] = biological target: Interleukin-1 receptor-associated kinase 4 (Homo sapiens) (UniProt Q9NWZ3); settings: Compound concentration 100.0 nM
[31] = biological target: Phosphatidylinositol 5-phosphate 4-kinase type-2 beta (Homo sapiens) (UniProt P78356); settings: Compound concentration 100.0 nM
Chain of Phosphatidylinositol 5-phosphate 4-kinase type-2 beta (Homo sapiens) (P78356 whole entry): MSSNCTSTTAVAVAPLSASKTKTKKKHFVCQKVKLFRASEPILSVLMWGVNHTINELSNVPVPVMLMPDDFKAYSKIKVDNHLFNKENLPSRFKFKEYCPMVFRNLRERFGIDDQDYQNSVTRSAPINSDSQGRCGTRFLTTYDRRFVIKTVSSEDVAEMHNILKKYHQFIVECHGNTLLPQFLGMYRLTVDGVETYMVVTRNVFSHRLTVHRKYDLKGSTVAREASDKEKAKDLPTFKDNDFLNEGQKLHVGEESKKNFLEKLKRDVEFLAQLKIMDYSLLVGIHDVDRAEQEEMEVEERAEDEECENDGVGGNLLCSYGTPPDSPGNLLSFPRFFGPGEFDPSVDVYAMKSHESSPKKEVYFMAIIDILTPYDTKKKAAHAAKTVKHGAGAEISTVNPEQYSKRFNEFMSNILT

[32] = biological target: Proto-oncogene tyrosine-protein kinase Src (Homo sapiens) (UniProt P12931); settings: Compound concentration 100.0 nM
Chain of Proto-oncogene tyrosine-protein kinase Src (Homo sapiens) (P12931 2-536 limits assumed): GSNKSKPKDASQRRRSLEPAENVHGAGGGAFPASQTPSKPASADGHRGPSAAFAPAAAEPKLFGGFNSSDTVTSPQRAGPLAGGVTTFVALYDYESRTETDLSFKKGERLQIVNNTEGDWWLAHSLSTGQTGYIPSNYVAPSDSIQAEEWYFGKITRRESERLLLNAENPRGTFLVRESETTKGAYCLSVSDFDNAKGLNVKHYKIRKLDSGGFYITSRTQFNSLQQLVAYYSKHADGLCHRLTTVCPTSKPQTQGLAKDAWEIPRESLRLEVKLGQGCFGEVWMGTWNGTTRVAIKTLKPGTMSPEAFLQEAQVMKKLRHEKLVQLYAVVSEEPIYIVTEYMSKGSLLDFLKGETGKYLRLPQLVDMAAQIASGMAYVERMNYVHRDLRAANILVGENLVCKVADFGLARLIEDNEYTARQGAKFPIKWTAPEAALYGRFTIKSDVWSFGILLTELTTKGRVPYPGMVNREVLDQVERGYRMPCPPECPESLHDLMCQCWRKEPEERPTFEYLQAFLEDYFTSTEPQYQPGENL

Cc1c[nH]c2nccc(Oc3c(F)cc(Nc4cc(Cl)nc(N)n4)cc3F)c12 [BAY-549]
inactive: residual activity [1] 76% | residual activity [2] 73% | residual activity [3] 57% | residual activity [4] 100% | residual activity [5] 68% | residual activity [6] 67% | inhibition [7] -7.12% | residual activity [8] 100% | residual activity [9] 100% | residual activity [10] 92% | residual activity [11] 94% | residual activity [12] 100% | residual activity [13] 98% | residual activity [14] 87% | residual activity [15] 97% | residual activity [16] 100% | residual activity [17] 77% | residual activity [18] 96% | residual activity [19] 89% | residual activity [20] 87% | residual activity [21] 100% | residual activity [22] 90% | residual activity [23] 88% | residual activity [24] 100% | residual activity [26] 92% | residual activity [27] 94% | residual activity [28] 96% | residual activity [29] 88% | residual activity [30] 85% | residual activity [31] 90% | residual activity [32] 100%
active: inhibition [25] 64.6%

Cn1cc(Cl)c2c(Oc3c(F)cc(Nc4cc(Cl)nc(N)n4)cc3F)ccnc21 [BAY-4900]
inactive: residual activity [1] 100% | residual activity [2] 78% | residual activity [3] 66% | residual activity [4] 98% | residual activity [5] 86% | residual activity [6] 84% | inhibition [7] 10.2% | residual activity [8] 86% | residual activity [9] 100% | residual activity [10] 100% | residual activity [11] 100% | residual activity [12] 100% | residual activity [13] 100% | residual activity [14] 100% | residual activity [15] 100% | residual activity [16] 100% | residual activity [17] 86% | residual activity [18] 100% | residual activity [19] 81% | residual activity [20] 65% | residual activity [21] 92% | residual activity [22] 91% | residual activity [23] 98% | residual activity [24] 100% | residual activity [26] 83% | residual activity [27] 100% | residual activity [28] 100% | residual activity [29] 82% | residual activity [30] 90% | residual activity [31] 76% | residual activity [32] 92%
active: inhibition [25] 54.4%
